Reference: article PMC11884936, “MDC1 mediates Pellino recruitment to sites of DNA double-strand breaks” (Life Science Alliance, 2025)

Legend:
Type in all cases: binding, human
RNF8 = assay: Biotinylated peptide pull-down from HeLa nuclear extracts, Western blot for RNF8; details: biotinylated peptide on streptavidin beads, 4 h at 4°C, SDS–PAGE and Western blot
Method: Streptavidin-coupled Dynabeads MyOne Streptavidin T1 (Invitrogen) were washed four times with PBS pH 7.4. To conjugate the Dynabeads with biotinylated peptides (21st Century Biochemicals, Inc.), 30 μl of beads were incubated with 0.2 μmol of each peptide with end-over-end rotation for 90 min at RT. Conjugated Dynabeads were then washed once with PBS and 3 × 2 min with 0.1% BSA in PBS. HeLa nuclear extracts (Ipracell) were diluted 1:1 in 2X Dilution buffer (100 mM NaCl, 10 mM NaF, 0.2 mM EDTA, 0.4% Igepal CA-630, 20 mM HEPES-KOH pH 7.4) supplemented with complete protease inhibitor cocktail (Roche), and cleared by centrifugation at 16,000g for 15 min at 4°C. Purified GST-PELI2-FHA recombinant protein was also diluted in 2X Dilution buffer containing protease inhibitors. MDC1-[p]TQXF peptide-conjugated Dynabeads were incubated either with clarified HeLa nuclear extracts for 4 h or with purified GST-PELI2-FHA for 5 h. H2AX-[p]S139 peptide-conjugated Dynabeads were incubated with clarified HeLa nuclear extracts for 4 h. […]
(§1) Adjusted volume (intensity) of Western blot bands was calculated with Image Lab (Bio-Rad, Image Lab Software Version 6.1, Bio-Rad Laboratories, Inc.) for every biotinylated p-peptide from the MDC1-[p]TQXF peptide pull-down from HeLa nuclear extracts, as a way of analyzing the binding affinity of either RNF8 or PELI1/2 for each pTQXF cluster. […]

GST-PELI2-FHA = assay: Biotinylated peptide pull-down of purified recombinant GST-PELI2-FHA; details: biotinylated peptide on streptavidin beads, 5 h at 4°C, SDS–PAGE, protein stain
Method: For recombinant human PELI2-FHA expression in bacteria and further purification, the GST-tagged PELI2-FHA construct was transformed into E. coli BL21(DE3)pLysS Competent Cells (Promega). 100 μl of the transformation mixture were used to inoculate a 500 ml flask containing 100 ml of Luria–Bertani broth (LB) supplemented with carbenicillin (100 μg/ml) and chloramphenicol (34 μg/ml), and inoculated culture was incubated overnight at 27°C without shaking. On the next day, the overnight culture was grown at 37°C in an orbital shaking incubator until the optical density at 600 nm reached 0.6–0.8, moment when culture was removed from the incubator and rapidly cooled on ice to 25°C. Recombinant protein expression was induced by the addition of 0.4 mM isopropyl β-D-1-thiogalactopyranoside (IPTG) and incubation of the culture for a further 4 h at 25°C shaking at 220 rpm was performed. Cells were then harvested by centrifugation, and the resulting pellet was stored at −80°C until required. […] Protein concentration was measured after every purification step. […]

PELI1/2 = assay: Biotinylated peptide pull-down from HeLa nuclear extracts, Western blot for PELI1/2; details: biotinylated peptide on streptavidin beads, 4 h at 4°C, SDS–PAGE and Western blot
Method: Streptavidin-coupled Dynabeads MyOne Streptavidin T1 (Invitrogen) were washed four times with PBS pH 7.4. To conjugate the Dynabeads with biotinylated peptides (21st Century Biochemicals, Inc.), 30 μl of beads were incubated with 0.2 μmol of each peptide with end-over-end rotation for 90 min at RT. Conjugated Dynabeads were then washed once with PBS and 3 × 2 min with 0.1% BSA in PBS. HeLa nuclear extracts (Ipracell) were diluted 1:1 in 2X Dilution buffer (100 mM NaCl, 10 mM NaF, 0.2 mM EDTA, 0.4% Igepal CA-630, 20 mM HEPES-KOH pH 7.4) supplemented with complete protease inhibitor cocktail (Roche), and cleared by centrifugation at 16,000g for 15 min at 4°C. Purified GST-PELI2-FHA recombinant protein was also diluted in 2X Dilution buffer containing protease inhibitors. MDC1-[p]TQXF peptide-conjugated Dynabeads were incubated either with clarified HeLa nuclear extracts for 4 h or with purified GST-PELI2-FHA for 5 h. H2AX-[p]S139 peptide-conjugated Dynabeads were incubated with clarified HeLa nuclear extracts for 4 h. In all the cases, incubation was performed with end-over-end rotation at 4°C. Beads were washed three times with Peptide pull-down buffer (50 mM NaCl, 50 mM KCl, 5 mM NaF, 0.1 mM EDTA, 0.2% Igepal CA-630, 10% glycerol, 20 mM HEPES-KOH pH 7.4) supplemented with complete protease inhibitor cocktail (Roche). Then, they were either resuspended in Peptide pull-down buffer and brought to the Functional Genomics Center of the University of Zurich (FGCZ) for further mass spectrometry, or elution was carried out in 2X SDS sample buffer (100 mM DTT, PLD001; Geneaid) for SDS–PAGE. […]
as §1

MDC1 = assay: Biotinylated H2AX-pS139 peptide pull-down from HeLa nuclear extracts, Western blot for MDC1; details: biotinylated peptide on streptavidin beads, 4 h at 4°C
Method: Streptavidin-coupled Dynabeads MyOne Streptavidin T1 (Invitrogen) were washed four times with PBS pH 7.4. To conjugate the Dynabeads with biotinylated peptides (21st Century Biochemicals, Inc.), 30 μl of beads were incubated with 0.2 μmol of each peptide with end-over-end rotation for 90 min at RT. Conjugated Dynabeads were then washed once with PBS and 3 × 2 min with 0.1% BSA in PBS. HeLa nuclear extracts (Ipracell) were diluted 1:1 in 2X Dilution buffer (100 mM NaCl, 10 mM NaF, 0.2 mM EDTA, 0.4% Igepal CA-630, 20 mM HEPES-KOH pH 7.4) supplemented with complete protease inhibitor cocktail (Roche), and cleared by centrifugation at 16,000g for 15 min at 4°C. Purified GST-PELI2-FHA recombinant protein was also diluted in 2X Dilution buffer containing protease inhibitors. MDC1-[p]TQXF peptide-conjugated Dynabeads were incubated either with clarified HeLa nuclear extracts for 4 h or with purified GST-PELI2-FHA for 5 h. H2AX-[p]S139 peptide-conjugated Dynabeads were incubated with clarified HeLa nuclear extracts for 4 h. In all the cases, incubation was performed with end-over-end rotation at 4°C. Beads were washed three times with Peptide pull-down buffer (50 mM NaCl, 50 mM KCl, 5 mM NaF, 0.1 mM EDTA, 0.2% Igepal CA-630, 10% glycerol, 20 mM HEPES-KOH pH 7.4) supplemented with complete protease inhibitor cocktail (Roche). […]

Substance | RNF8 pulled down by the peptide (in words) (RNF8) | purified GST-PELI2-FHA pulled down by the peptide (in words) (GST-PELI2-FHA) | PELI1/2 pulled down by the peptide (in words) (PELI1/2) | MDC1 pulled down by the peptide (in words) (MDC1)
Biotin-SGS-LDEPWEVLA[p]TQPFCL-NH2 [biotinylated pT752, synthetic biotinylated peptide, human MDC1 residues 743–757, phospho-threonine at T752] | large quantities | specifically pulled down |  | 
Biotin-SGS-DSEDLDLQA[p]TQCFLE-NH2 [biotinylated pT699, synthetic biotinylated MDC1 TQXF phosphopeptide for pull-downs] | highest quantities |  | highest quantities | 
Biotin-SGS-CLRESEDSE[p]TQPFDT-NH2 [biotinylated pT765, synthetic biotinylated MDC1 TQXF phosphopeptide for pull-downs] |  |  | more PELI1/2 than RNF8 | 
Biotin-SGS-AVQSMEDEP[p]TQAFML-NH2 [biotinylated pT719, synthetic biotinylated MDC1 TQXF phosphopeptide for pull-downs] |  | specifically pulled down | specifically pulled down | 
Biotin-SGS-TVGPKAPSGGKKATQA[p]SQEY-OH [biotinylated H2AX-pS139, biotinylated γH2AX phosphopeptide for pull-downs] |  |  |  | efficiently pulled down
